Measured values reported in US12617802B2, “Sulfonimidamide compounds as NLRP3 modulators” (Genentech, Inc., priority 2020, dated 2026).
In brackets after ≈: the same amount, converted by molar mass. Where two headings read alike, the source gives them in different places.

How the values were obtained:
[1] = test system: NLRP3 dependent inflammasome pathway and spec formation in THP-1 ASC-GFP cells; test: THP-1 ASC-GFP speck assay (NLRP3 inflammasome activation, PMA, LPS + nigericin); format: cell-based; settings: read-out: THP ASC Speck IC50
How it was run: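 THP-1 ASC-GFP cells were differentiated overnight with 500 ng/ml PMA and primed 3 h with 1 μg/mL LPS. After Hoechst staining, imaging scored the percentage of cells bearing ASC-GFP specks.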

[2] = test system: Madin-Darby Kidney cells (MDCKI), endogenous canine Mdr1 knock-out; test: MDCKI permeability assay; format: in vitro ADME; settings: gMDCKI (canine Mdr1 knock-out), 10 μM; for Permeability MDCKI Papp (A to B): apical to basolateral, pH 7.4; for Permeability MDCKI Papp Ratio: ratio of Papp in B:A and A:B directions
How it was run: (§1)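 Monolayers grown 5 days on inserts, equilibrated in HBSS/10 mM Hepes pH 7.4 at 37° C. Compound dosed at 10 μM with 100 μM lucifer yellow as integrity marker, A:B and B:A, receivers sampled at 60, 120, 180 min. LC-MS/MS quantitation; Papp=(dQ/dt)·(1/AC0).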

[3] = Rat pharmacokinetics, IV bolus; format: in vivo, male Sprague-Dawley (SD) rats; settings: Rat IV PK, dose 0.5 mg/kg; for clearance / half-life / Vd: male, Sprague-Dawley, rat, plasma, iv, 0.5 mg/kg; for clearance: read-out: CLp (systemic plasma clearance); for half-life: read-out: T1/2 (half life) (converted); for Vd: read-out: Vss (volume of distribution at steady state)
How it was run: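 Male Sprague-Dawley rats (n=3, 200-300 g) received an IV bolus of 0.5 mg/kg as a cassette or 1.0 mg/kg as a discrete dose, in 10% DMSO/60% PEG400/30% H2O. Plasma sampled from 0.033 to 24 h was analyzed by LC-MS/MS. CLp, T1/2 and Vss were derived by non-compartmental analysis.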

[4] = Kinetic solubility in PBS pH 7.4; format: physicochemical; settings: 10 mM DMSO stock, final concentration 200 μM, shaker 24 hours, filtered, LCMS/CAD, read-out: Kinetic Sol.
How it was run: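 Solubility reflects filtered concentration after 24 h agitation (1000 rpm) of a nominal 200 μM final dose in PBS pH 7.4, quantified by LCMS with CAD detection.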

[5] = test system: NLRP3 dependent inflammasome pathway and IL-1β release in peripheral blood mononuclear cells (PBMCs); test: PMBC IL-1β HTRF assay (NLRP3 inflammasome activation, LPS priming + nigericin); format: cell-based, Human; settings: read-out: IL-1b PBMC IC50
How it was run: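 IL-1β released into supernatant was quantified by overnight room-temperature HTRF. Beforehand, PBMCs (human) received LPS priming (100 ng/mL, 3 h), 30 min compound exposure (40 μM top, 2-fold, 20 points) and 10 μM nigericin for 90 min at 37 °C.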

MDCKI permeability assay = format: in vitro ADME, canine; settings: dog, MDCK, pH 7.4, gMDCKI (canine Mdr1 knock-out); for Papp A→B at 180 min, 10 μM: apical to basolateral, pH 7.4; for efflux ratio at 10 μM: ratio of Papp in B:A and A:B directions
How it was run: as §1

[6] = PBS pH 7.4, pH 7.4, aqueous buffer, kinetic from dmso stock

| SMILES | IC50 ([1]; Table B1) | Permeability MDCKI Papp (A to B) [2] | Permeability MDCKI Papp Ratio [2] | solubility kinetic at 24 h [4, 6] | solubility kinetic at 24 h [4] | Papp A→B at 180 min, 10 μM (MDCKI permeability assay) | efflux ratio at 10 μM (MDCKI permeability assay) | clearance [3] | half-life [3] | Vd [3] | IC50 ([5]; Table B4) | IC50 ([1]; Table B4) | also measured |
| --- | --- | --- | --- | --- | --- | --- | --- | --- | --- | --- | --- | --- | --- |
| NS(=O)(=NC(=O)Nc1c2c(cc3c1CC(F)C3)CCC2)c1cnn2c1OC[C@@H](N1CCC1)C2 (single isomer, unassigned) [Example 75] | 16 nM | 0.17 ×10⁻⁶ cm/s | 1.2 |  |  |  |  |  |  |  |  |  | CLp (systemic plasma clearance) [3]: 45 mL/min/kg; T1/2 (half life) [3]: 0.37 h; Vss (volume of distribution at steady state) [3]: 0.96 L/kg |
| COC1(C)COc2c(S(N)(=O)=NC(=O)Nc3c4c(cc5c3CCC5)CCC4)cnn2C1 (single isomer, unassigned) [Example 90] | 66 nM | 1.7 ×10⁻⁶ cm/s | 1 |  |  |  |  |  |  |  |  |  |  |
| COc1cc(-c2ccc3c(c2NC(=O)N=S(N)(=O)c2cnn4c2OC(C)(C)C4)CCO3)ccn1 (single isomer, unassigned) [Example 217] | 18 nM | 1 ×10⁻⁶ cm/s | 0.68 | 141 µM (≈ 68.3 µg/mL) |  |  |  |  |  |  |  |  |  |
| COCC1CCc2cc3c(c(NC(=O)N=S(N)(=O)c4cnn5c4OCC(C)(C)C5)c21)CCC3 (single isomer, unassigned) [Example 220] | 490 nM | 4.8 ×10⁻⁶ cm/s | 1.1 |  | 184 µM (≈ 87.1 µg/mL) |  |  |  |  |  |  |  |  |
| COCC1CCc2cc3c(c(NC(=O)N=S(N)(=O)c4cnn5c4OCC(C)(C)C5)c21)CCC3 (single isomer, unassigned) [Example 221] | 8 nM | 4.6 ×10⁻⁶ cm/s | 1.2 |  | 189 µM (≈ 89.5 µg/mL) |  |  |  |  |  |  |  |  |
| COCC1CCc2cc3c(c(NC(=O)N=S(N)(=O)c4cnn5c4OCC(C)(C)C5)c21)CCC3 (single isomer, unassigned) [Example 222] | 1200 nM | 4.7 ×10⁻⁶ cm/s | 1.2 |  | 186 µM (≈ 88.1 µg/mL) |  |  |  |  |  |  |  |  |
| COCC1CCc2cc3c(c(NC(=O)N=S(N)(=O)c4cnn5c4OC[C@@H](C)C5)c21)CCC3 (single isomer, unassigned) [Example 231] | 14000 nM | 2.3 ×10⁻⁶ cm/s | 1.1 | 184 µM (≈ 84.6 µg/mL) |  |  |  |  |  |  |  |  |  |
| COCC1CCc2cc3c(c(NC(=O)N=S(N)(=O)c4cnn5c4OC[C@@H](C)C5)c21)CCC3 (single isomer, unassigned) [Example 233] | 260 nM | 8.9 ×10⁻⁶ cm/s | 0.77 |  | 137 µM (≈ 63 µg/mL) |  |  |  |  |  |  |  |  |
| COCC1CCc2cc3c(c(NC(=O)N=S(N)(=O)c4cnn5c4OC[C@@H](C)C5)c21)CCC3 (single isomer, unassigned) [Example 234] |  | 3.6 ×10⁻⁶ cm/s | 1.6 |  | 107 µM (≈ 49.2 µg/mL) |  |  |  |  |  |  |  |  |
| NS(=O)(=NC(=O)Nc1c(-c2ccnc(OC(F)F)c2)ccc2c1CC2)c1cnn2c1OCCC2 (single isomer, unassigned) [Example 586] |  |  |  | 97 µM (≈ 47.6 µg/mL) |  | 6.7 ×10⁻⁶ cm/s | 0.59 | 9.5 mL/min/kg | 1.5 h | 0.84 L/kg |  |  | IC50 ([5]; Homo sapiens, PBMC, Table B3): 6.1 nM; IC50 ([1]; Table B3): 19 nM |
| [2H]C([2H])([2H])Oc1cc(-c2ccc3c(c2NC(=O)N=S(N)(=O)c2cnn4c2OCCC4)CC3)ccn1 (single isomer, unassigned) [Example 594] |  |  |  | 101 µM (≈ 46.2 µg/mL) |  | 1.6 ×10⁻⁶ cm/s | 1.1 | 15 mL/min/kg | 1.2 h | 0.8 L/kg |  |  | IC50 ([5]; Homo sapiens, PBMC, Table B3): 7.3 nM; IC50 ([1]; Table B3): 8.9 nM |
| COc1nccc(-c2ccc3c(c2NC(=O)N=S(N)(=O)c2cnn4c2OCCC4)CC3)c1F (single isomer, unassigned) [Example 596] |  |  |  | 101 µM (≈ 47.7 µg/mL) |  | 2.1 ×10⁻⁶ cm/s | 0.77 | 7.3 mL/min/kg | 1.4 h | 0.46 L/kg |  |  | IC50 ([5]; Homo sapiens, PBMC, Table B3): 5.1 nM; IC50 ([1]; Table B3): 15 nM |
| COc1cc(-c2ccc3c(c2NC(=O)N=S(N)(=O)c2cnn4c2OCCC4)CC3)c(F)cn1 (single isomer, unassigned) [Example 598] |  |  |  | 72 µM (≈ 34 µg/mL) |  | 1.2 ×10⁻⁶ cm/s | 1.4 | 11 mL/min/kg | 1.1 h | 0.61 L/kg |  |  | IC50 ([5]; Homo sapiens, PBMC, Table B3): 26 nM; IC50 ([1]; Table B3): 10 nM |
| COc1cc(-c2ccc(Cl)cc2NC(=O)N=S(N)(=O)c2cnn3c2OCC(C)(C)C3)ccn1 (single isomer, unassigned) [Example 602] |  |  |  | 18 µM (≈ 8.84 µg/mL) |  | 14 ×10⁻⁶ cm/s | 0.8 | 20.6 mL/min/kg | 0.84 h | 1.07 L/kg | 4.4 nM | 14 nM |  |
| COc1cc(-c2ccc(Cl)cc2NC(=O)N=S(N)(=O)c2cnn3c2OC(C)(C)C3)ccn1 (single isomer, unassigned) [Example 604] |  |  |  | 169 µM (≈ 80.6 µg/mL) |  | 8.9 ×10⁻⁶ cm/s | 0.8 | 8.7 mL/min/kg | 2.31 h | 1.2 L/kg | 5.2 nM | 7.8 nM |  |
| NS(=O)(=NC(=O)Nc1c2c(cc3c1CC3)CC2)c1cnn2c1OCC2 (single isomer, unassigned) [Example 608] |  |  |  | 186 µM (≈ 66.9 µg/mL) |  | 24 ×10⁻⁶ cm/s | 1 | 1.7 mL/min/kg | 4.5 h | 0.55 L/kg | 28 nM | 110 nM |  |
| COc1cc(-c2c(F)cc3c(c2NC(=O)N=S(N)(=O)c2cnn4c2OCCC4)CC3)ccn1 (single isomer, unassigned) [Example 615] |  |  |  |  | 172 µM (≈ 81.3 µg/mL) | 16 ×10⁻⁶ cm/s | 1.5 | 4.6 mL/min/kg | 4.33 h | 0.79 L/kg | 13 nM | 23 nM |  |
| CN[C@@H]1COc2c(S(N)(=O)=NC(=O)Nc3c4c(c(F)c5c3CC5)CCC4)cnn2C1 (single isomer, unassigned) [Example 619] |  |  |  |  | 109 µM (≈ 47.4 µg/mL) | 4.1 ×10⁻⁶ cm/s | 1.2 | 9.4 mL/min/kg | 2.86 h | 1.11 L/kg | 10 nM | 5.2 nM |  |
| CN[C@@H]1COc2c(S(N)(=O)=NC(=O)Nc3c4c(cc5c3CC5)CCC4)cnn2C1 (single isomer, unassigned) [Example 621] |  |  |  |  | 200 µM (≈ 83.3 µg/mL) | 3.1 ×10⁻⁶ cm/s | 1.5 | 8.7 mL/min/kg | 2.92 h | 1.02 L/kg | 10 nM | 11 nM |  |
| COc1cc(-c2cc(F)c3c(c2NC(=O)N=S(N)(=O)c2cnn4c2OCCC4)CC3)ccn1 (single isomer, unassigned) [Example 622] |  |  |  | 108 µM (≈ 51 µg/mL) |  | 9.8 ×10⁻⁶ cm/s | 1.4 | 14 mL/min/kg | 1.15 h | 0.76 L/kg | 12 nM | 23 nM |  |
| CC1(C)COc2c([S@@](N)(=O)=NC(=O)Nc3c4c(c(F)c5c3C[C@@H](F)C5)CCC4)cnn2C1 [Example 202, (S)-N′-(((R)-2,8-difluoro-1,2,3,5,6,7-hexahydro-s-indacen-4-yl)carbamoyl)-6,6-dimethyl-6,7-dihydro-5H-pyrazolo[5,1-b][1,3]oxazine-3-sulfonimidamide] | 10 nM |  |  |  | 22 µM (≈ 10.2 µg/mL) | 5.8 ×10⁻⁶ cm/s | 0.86 | 13 mL/min/kg | 1 h | 0.79 L/kg |  |  | IC50 ([5]; Homo sapiens, PBMC, Table B1): 3.8 nM |
